# In patent US20230203043A1, “NOVEL IMIDAZOPYRAZINE DERIVATIVES” (Hoffmann-La Roche Inc., priority 2020, published 2023):
# Structures can show the parent of a compound that is named as a salt.
# System: Acinetobacter baumannii ATCC17961
# Test: Antimicrobial susceptibility testing: 90% growth inhibitory concentration (IC90) determination in Iso-Sensitest broth, OD600 growth
# Format: cell-based
# Details: Acinetobacter baumannii, ATCC17961, 16 h, read-out: A. baumannii ATCC 17961 IC90 (uM), strain ATCC 17961, OD600 growth over 16 h
# In short: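 Growth monitored at 600 nm every 20 min for 16 h at 35±2 °C, inoculum ~5×10^(5) CFU/ml in Iso-Sensitest medium. Compounds in 10-point twofold series, e.g. 50 to 0.097 μM final; 90% inhibitory concentration taken from log-phase growth.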
row,SMILES,IC90
1,"NCCNC(=O)CNC(=O)c1ccc(Nc2nccn3c(-c4cn(CC(F)F)nc4C(F)(F)F)cnc23)cc1Cl [Example 117, N-[2-(2-aminoethylamino)-2-oxoethyl]-2-chloro-4-[[3-[1-(2,2-difluoroethyl)-3-(trifluoromethyl)pyrazol-4-yl]imidazo[1,2-a]pyrazin-8-yl]amino]benzamide formate]",0.338 µM
2,"CCc1cc(Nc2nccn3c(-c4cn(C5CCC5)nc4C(F)(F)F)cnc23)ccc1C(=O)NCCOCCN1CCCC1 [Example 619, 4-((3-(1-cyclobutyl-3-(trifluoromethyl)-1H-pyrazol-4-yl)imidazo[1,2-a]pyrazin-8-yl)amino)-2-ethyl-N-(2-(2-(pyrrolidin-1-yl)ethoxy)ethyl)benzamide formate]",0.131 µM
3,"O=C(c1ccc(Nc2nccn3c(-c4c[nH]nc4C(F)(F)F)cnc23)cc1Cl)N1CCN(C(=O)[C@@H]2CCNC[C@@H]2O)CC1 [Example 450, [2-chloro-4-[[3-[3-(trifluoromethyl)-1H-pyrazol-4-yl]imidazo[1,2-a]pyrazin-8-yl]amino]phenyl]-[4-[(3R,4R)-3-hydroxypiperidine-4-carbonyl]piperazin-1-yl]methanone formate]",0.306 µM
4,"CCc1cc(Nc2nccn3c(-c4c[nH]nc4C(F)(F)F)cnc23)ccc1C(=O)NCCNC(=O)C1CCNCC1 [Example 553, N-(2-(2-ethyl-4-((3-(3-(trifluoromethyl)-1H-pyrazol-4-yl)imidazo[1,2-a]pyrazin-8-yl)amino)benzamido)ethyl) piperidine-4-carboxamide formate]",0.682 µM
5,"Cc1cc(Nc2nccn3c(-c4cn(CC#N)nc4C(F)(F)F)cnc23)ccc1C(=O)N[C@H](C)C(=O)N[C@H]1CCNC1 [Example 738, 4-[[3-[1-(cyanomethyl)-3-(trifluoromethyl)pyrazol-4-yl]imidazo[1,2-a]pyrazin-8-yl]amino]-2-methyl-N-[(1R)-1-methyl-2-oxo-2-[[(3S)-pyrrolidin-3-yl]amino]ethyl]benzamide formate]",0.526 µM
6,"CCc1cc(Nc2nccn3c(-c4c[nH]nc4C(F)(F)F)cnc23)ccc1C(=O)NCCCNC(=O)[C@@H]1CC[C@H](N)C1 [Example 534, N-(3-((1R,3S)-3-aminocyclopentane-1-carboxamido)propyl)-2-ethyl-4-((3-(3-(trifluoromethyl)-1H-pyrazol-4-yl)imidazo[1,2-a]pyrazin-8-yl)amino)benzamide formate]",0.251 µM
7,"C[C@@H](NC(=O)c1ccc(Nc2nccn3c(-c4c[nH]nc4C(F)(F)F)cnc23)cc1Cl)C(=O)N1CCC(N)CC1 [Example 90, N-[(2R)-1-(4-aminopiperidin-1-yl)-1-oxopropan-2-yl]-2-chloro-4-[[3-[3-(trifluoromethyl)-1H-pyrazol-4-yl]imidazo[1,2-a]pyrazin-8-yl]amino]benzamide formate]",0.643 µM
8,"Cc1cc(Nc2nccn3c(-c4cn(CC#N)nc4C(F)(F)F)cnc23)ccc1C(=O)NCC(=O)NCCN(C)C [Example 752, 4-[[3-[1-(cyanomethyl)-3-(trifluoromethyl)pyrazol-4-yl]imidazo[1,2-a]pyrazin-8-yl]amino]-N-[2-[2-(dimethylamino)ethylamino]-2-oxo-ethyl]-2-methyl-benzamide formate]",0.636 µM
9,"Cc1cc(Nc2nccn3c(-c4c[nH]nc4C(F)(F)F)cnc23)ccc1C(=O)N1CCN(C(=O)[C@H]2CCNC[C@H]2O)CC1 [Example 463, formic acid; [4-[(3S,4S)-3-hydroxypiperidine-4-carbonyl]piperazin-1-yl]-[2-methyl-4-[[3-[3-(trifluoromethyl)-1H-pyrazol-4-yl]imidazo[1,2-a]pyrazin-8-yl]amino]phenyl]methanone]",0.998 µM
10,"CCc1cc(Nc2nccn3c(-c4c[nH]nc4C(F)(F)F)cnc23)ccc1C(=O)N[C@@H](C)CN [Example 349, N-[(2S)-1-aminopropan-2-yl]-2-ethyl-4-[[3-[3-(trifluoromethyl)-1H-pyrazol-4-yl]imidazo[1,2-a]pyrazin-8-yl]amino]benzamide formate]",1.63 µM
11,"N#CCn1cc(-c2cnc3c(Nc4ccc(C(=O)N5CCN(C(=O)[C@H]6CC[C@H](N)C6)CC5)c(Cl)c4)nccn23)c(C(F)(F)F)n1 [Example 582, 2-(4-(8-((4-(4-((1S,3S)-3-aminocyclopentane-1-carbonyl)piperazine-1-carbonyl)-3-chlorophenyl)amino)imidazo[1,2-a]pyrazin-3-yl)-3-(trifluoromethyl)-1H-pyrazol-1-yl) acetonitrile formate]",0.232 µM

# Same assay, conditions: Acinetobacter baumannii, ATCC17961, 16 h, strain ATCC 17961, OD600 growth over 16 h, read-out: A. baumannii ATCC 17961 IC90
row,SMILES,IC90
1,"N#CCn1cc(-c2cnc3c(Nc4ccc(C(=O)N5CC(NC(=O)[C@@H]6C[C@@H](O)CN6)C5)c(Cl)c4)nccn23)c(C(F)(F)F)n1 [Example 173, (2S,4R)-N-[1-[2-chloro-4-[[3-[1-(cyanomethyl)-3-(trifluoromethyl)pyrazol-4-yl]imidazo[1,2-a]pyrazin-8-yl]amino]benzoyl]azetidin-3-yl]-4-hydroxypyrrolidine-2-carboxamide]",1.11 µM
2,"NCCCNC(=O)CNCCNC(=O)c1ccc(Nc2nccn3c(-c4cn(CC(F)F)nc4C(F)(F)F)cnc23)cc1Cl [Example 824, N-(2-((2-((3-aminopropyl)amino)-2-oxoethyl)amino)ethyl)-2-chloro-4-(3-(1-2,2-difluoroethyl)-3-(trifluoromethyl)-1H-pyrazol-4-yl)imidazo[1,2-a]pyrazin-8-yl)amino) benzamide formate]",0.12 µM
3,"CCc1cc(Nc2nccn3c(-c4cn(CC#N)nc4C(F)(F)F)cnc23)ccc1C(=O)NCCNC(=O)[C@H](C)N [Example 493, (S)-N-(2-(2-aminopropanamido)ethyl)-4-((3-(1-(cyanomethyl)-3-(trifluoromethyl)-1H-pyrazol-4-yl)imidazo[1,2-a]pyrazin-8-yl)amino)-2-ethylbenzamide formate]",0.129 µM
4,"CCc1cc(Nc2nccn3c(-c4cn(CC(F)F)nc4C(F)(F)F)cnc23)ccc1C(=O)NCCCNC(=O)[C@H]1C[C@@H](N)C1 [Example 541, N-(3-((1s,3s)-3-aminocyclobutane-1-carboxamido)propyl)-4-((3-(1-(2,2-difluoroethyl)-3-(trifluoromethyl)-1H-pyrazol-4-yl)imidazo[1,2-a]pyrazin-8-yl)amino)-2-ethylbenzamide formate]",0.246 µM
5,"CCc1cc(Nc2nccn3c(-c4cn(CC#N)nc4C(F)F)cnc23)ccc1C(=O)NCCOCCN [Example 18, N-[2-(2-aminoethoxy)ethyl]-4-[[3-[1-(cyanomethyl)-3-(difluoromethyl)pyrazol-4-yl]imidazo[1,2-a]pyrazin-8-yl]amino]-2-ethylbenzamide]",0.26 µM
6,"C#CCn1cc(-c2cnc3c(Nc4ccc(C(=O)NCCOCCN)c(Cl)c4)nccn23)c(C(F)(F)F)n1 [Example 249, N-[2-(2-aminoethoxy)ethyl]-2-chloro-4-[[3-[1-prop-2-ynyl-3-(trifluoromethyl)pyrazol-4-yl]imidazo[1,2-a]pyrazin-8-yl]amino]benzamide]",0.047 µM
7,"CCc1cc(Nc2nccn3c(-c4cn(CC#N)nc4C(F)(F)F)cnc23)ccc1C(=O)NCC(=O)N1CC[C@@H](N)C1 [Example 504, N-[2-[(3R)-3-aminopyrrolidin-1-yl]-2-oxo-ethyl]-4-[[3-[1-(cyanomethyl)-3-(trifluoromethyl)pyrazol-4-yl]imidazo[1,2-a]pyrazin-8-yl]amino]-2-ethyl-benzamide formate]",0.238 µM
8,"CCc1cc(Nc2nccn3c(-c4cn(CC(F)F)nc4C(F)F)cnc23)ccc1C(=O)N1CCN(C(=O)[C@H]2C[C@H](N)C2)CC1 [Example 743, (4-((1r,3r)-3-aminocyclobutane-1-carbonyl)piperazin-1-yl)(4-((3-(1-(2,2-difluoroethyl)-3-(difluoromethyl)-1H-pyrazol-4-yl)imidazo[1,2-a]pyrazin-8-yl)amino)-2-ethylphenyl) methanone]",0.532 µM
9,"Cc1cc(Nc2nccn3c(-c4cn(CCF)nc4C(F)(F)F)cnc23)cc(F)c1C(=O)N1CCNCC1 [Example 73, [2-fluoro-4-[[3-[1-(2-fluoroethyl)-3-(trifluoromethyl)pyrazol-4-yl]imidazo[1,2-a]pyrazin-8-yl]amino]-6-methylphenyl]-piperazin-1-ylmethanone]",0.687 µM
10,"Cc1cc(Nc2nccn3c(-c4c[nH]nc4C(F)(F)F)cnc23)ccc1C(=O)N1CCN(C(=O)[C@@H]2CNCC[C@@H]2O)CC1 (racemic) [Example 468, [2-methyl-4-[[3-[3-(trifluoromethyl)-1H-pyrazol-4-yl]imidazo[1,2-a]pyrazin-8-yl]amino]phenyl]-[4-[rac-(3R,4S)-4-hydroxypiperidine-3-carbonyl]piperazin-1-yl]methanone hydrochloride]",1.43 µM
11,"CCc1cc(Nc2nccn3c(-c4c[nH]nc4C(F)(F)F)cnc23)ccc1C(=O)N[C@H](C)CN [Example 145, N-[(2R)-1-aminopropan-2-yl]-2-ethyl-4-[[3-[3-(trifluoromethyl)-1H-pyrazol-4-yl]imidazo[1,2-a]pyrazin-8-yl]amino]benzamide trifluoroacetate]",1.9 µM
12,"NCC(=O)N1CCN(C(=O)c2ccc(Nc3nccn4c(-c5cn(CC(F)F)nc5C(F)(F)F)cnc34)cc2Cl)CC1 [Example 6, 2-amino-1-[4-[2-chloro-4-[[3-[1-(2,2-difluoroethyl)-3-(trifluoromethyl)pyrazol-4-yl]imidazo[1,2-a]pyrazin-8-yl]amino]benzoyl]piperazin-1-yl]ethanone]",0.159 µM
13,"CCc1cc(Nc2nccn3c(-c4cn(CC#N)nc4C(F)(F)F)cnc23)ccc1C(=O)NCC(=O)NCC1CCNC1 (stereo not drawn) [Example 523, 4-[[3-[1-(cyanomethyl)-3-(trifluoromethyl)pyrazol-4-yl]imidazo[1,2-a]pyrazin-8-yl]amino]-2-ethyl-N-[2-oxo-2-(pyrrolidin-3-ylmethylamino)ethyl] benzamide formate]",0.313 µM
